molecular target: T1, CCR2 (Homo sapiens, UniProt P41597); assay: MCP-1 Receptor Binding Assay in THP-1 Cells; conditions: MCP-1 binding to CCR2; test concentration of 25 μM, unless indicated otherwise; read-out: % Inhibition Ligand Binding
T1 sequence (P41597 1-360 isoform P41597-2): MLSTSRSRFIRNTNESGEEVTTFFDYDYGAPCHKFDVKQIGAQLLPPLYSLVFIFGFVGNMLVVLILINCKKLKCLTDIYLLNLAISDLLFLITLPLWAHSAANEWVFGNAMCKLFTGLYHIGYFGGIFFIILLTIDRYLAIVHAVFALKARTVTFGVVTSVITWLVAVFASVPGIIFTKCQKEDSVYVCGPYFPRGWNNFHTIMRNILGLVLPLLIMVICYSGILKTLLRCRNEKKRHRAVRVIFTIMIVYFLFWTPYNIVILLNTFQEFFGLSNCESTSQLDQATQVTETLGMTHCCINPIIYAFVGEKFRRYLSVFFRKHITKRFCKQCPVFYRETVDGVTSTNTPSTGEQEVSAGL
Method: THP-1 cells were obtained from American Type Culture Collection (Manassas, Va., USA). […] The cell density was maintained between 0.5×10^6 cells/mL.
Cells were then harvested onto a filter plate, dried, and 20 μL of Microscint 20 was added to each well. Plates were counted in a TopCount NXT, Microplate Scintillation & Luminescence Counter (Perkin-Elmer Life Sciences, Inc. Boston, Mass.). Blank values (buffer only) were subtracted from all values and drug treated values were compared to vehicle treated values. 1 μM cold MCP-1 was used for nonspecific binding.

Going from `C[N+](C)(Cc1cccc(NC(=O)c2cccc(Br)c2)c1)C1CCOCC1` [Cpd 8, [3-(3-bromo-benzoylamino)-benzyl]-dimethyl-(tetrahydro-pyran-4-yl)-ammonium iodide] to `C[N+](C)(Cc1ccc(NC(=O)c2c(Cl)cccc2Cl)cc1)C1CCOCC1` [Cpd 12, [4-(2,6-dichloro-benzoylamino)-benzyl]-dimethyl-(tetrahydro-pyran-4-yl)-ammonium iodide], the inhibition at 25 µM rises from 34% to 38%.

Compared with `Cc1c(Cl)cccc1C(=O)Nc1ccc(C[N+](C)(C)C2CCOCC2)cc1` [Cpd 25, [4-(3-chloro-2-methyl-benzoylamino)-benzyl]-dimethyl-(tetrahydro-pyran-4-yl)-ammonium iodide], `C[N+](C)(Cc1ccc(NC(=O)C=Cc2ccc(Cl)c(Cl)c2)cc1)C1CCSCC1` [Cpd 41, {4-[3-(3,4-dichloro-phenyl)-acryloylamino]-benzyl}-dimethyl-(tetrahydro-thiopyran-4-yl)-ammonium iodide] is higher in inhibition at 25 µM: 15% for the first, 87% for the second.

same assay, conditions: THP-1 cells, 0.5 nM 125I labeled MCP-1, 2 hours at 30° C.; read-out: Mean Ligand Binding IC50 (inhibition of MCP-1 binding to CCR2)

Going from `C[N+](C)(Cc1ccc(CNC(=O)C=Cc2cccc(Br)c2)cc1)C1CCCCC1` [Cpd 1, (4-{[3-(3-bromo-phenyl)-acryloylamino]-methyl}-benzyl)-cyclohexyl-dimethyl-ammonium iodide] to `C[N+](C)(Cc1ccc(CNC(=O)C=Cc2cccc(Br)c2)cc1)C1CCOCC1` [Cpd 5, (4-{[3-(3-bromo-phenyl)-acryloylamino]-methyl}-benzyl)-dimethyl-(tetrahydro-pyran-4-yl)-ammonium iodide], the IC50 rises from 2.3 µM to 8.3 µM (3.6-fold). The first is the more potent here.

`C[N+](C)(Cc1ccc(CNC(=O)c2cccc(Br)c2)cc1)C1CCCCC1` [Cpd 2, {4-[(3-bromo-benzoylamino)-methyl]-benzyl}-cyclohexyl-dimethyl-ammonium iodide] and `C[N+](C)(Cc1ccc(CNC(=O)c2cccc(C(F)(F)F)c2)cc1)C1CCCCC1` [Cpd 3, cyclohexyl-dimethyl-{4-[(3-trifluoromethyl-benzoylamino)-methyl]-benzyl}-ammonium iodide] are within 1.5-fold of each other in IC50: 5.5 µM for the first, 4.3 µM for the second.

Compared with `C[N+](C)(Cc1ccc(CNC(=O)C=Cc2ccc(Cl)c(Cl)c2)cc1)C1CCOCC1` [Cpd 4, (4-{[3-(3,4-dichloro-phenyl)-acryloylamino]-methyl}-benzyl)-dimethyl-(tetrahydro-pyran-4-yl)-ammonium iodide], `C[N+](C)(Cc1ccc(NC(=O)C=Cc2cccc(Cl)c2)cc1)C1CCOCC1` [Cpd 45, {4-[3-(3-chloro-phenyl)-acryloylamino]-benzyl}-dimethyl-(tetrahydro-pyran-4-yl)-ammonium iodide] is 12-fold lower in IC50: 3.1 µM for the first, 0.26 µM for the second.

First: C[N+](C)(Cc1ccc(NC(=O)c2cc(Cl)ccc2Cl)cc1)C1CCOCC1 [Cpd 11, [4-(2,5-dichloro-benzoylamino)-benzyl]-dimethyl-(tetrahydro-pyran-4-yl)-ammonium iodide]
Second: Cc1ccc(Cl)cc1C(=O)Nc1ccc(C[N+](C)(C)C2CCOCC2)cc1 [Cpd 35, [4-(5-chloro-2-methyl-benzoylamino)-benzyl]-dimethyl-(tetrahydro-pyran-4-yl)-ammonium iodide]
The IC50 of the first is 7.8-fold higher: 3.1 µM for the first, 0.4 µM for the second.

Compared with `C[N+](C)(Cc1ccc(NC(=O)c2ccc(Cl)c(Cl)c2)cc1)C[C@@H]1CCCO1` [Cpd 15, (2S)-[4-(3,4-dichloro-benzoylamino)-benzyl]-dimethyl-(tetrahydro-furan-2-ylmethyl)-ammonium iodide], `C[N+](C)(Cc1ccc(NC(=O)c2ccc(Cl)c(Cl)c2)cc1)C[C@H]1CCCO1` [Cpd 16, (2R)-[4-(3,4-dichloro-benzoylamino)-benzyl]-dimethyl-(tetrahydro-furan-2-ylmethyl)-ammonium iodide] is 2.4-fold lower in IC50: 2 µM for the first, 0.85 µM for the second. The second is the more potent here.

Going from `C[N+](C)(Cc1ccc(NC(=O)c2ccc(Cl)c(Cl)c2)cc1)C1CCSC1` (stereo not drawn) [Cpd 19, [4-(3,4-dichloro-benzoylamino)-benzyl]-dimethyl-(tetrahydro-thien-3-yl)-ammonium iodide] to `CC[N+](C)(Cc1ccc(NC(=O)c2ccc(Cl)c(Cl)c2)cc1)C1CCOCC1` (stereo not drawn) [Cpd 21, [4-(3,4-dichloro-benzoylamino)-benzyl]-ethyl-methyl-(tetrahydro-pyran-4-yl)-ammonium iodide], the IC50 rises from 0.005 µM to 0.15 µM (30-fold). The first is the more potent here.

Going from `CCC[N+](C)(Cc1ccc(NC(=O)c2ccc(Cl)c(Cl)c2)cc1)C1CCOCC1` (stereo not drawn) [Cpd 22, [4-(3,4-dichloro-benzoylamino)-benzyl]-methyl-propyl-(tetrahydro-pyran-4-yl)-ammonium iodide] to `Cc1ccc(C(=O)Nc2ccc(C[N+](C)(C)C3CCOCC3)cc2)cc1Cl` [Cpd 28, [4-(3-chloro-4-methyl-benzoylamino)-benzyl]-dimethyl-(tetrahydro-pyran-4-yl)-ammonium iodide], the IC50 falls from 1.6 µM to 0.46 µM (3.5-fold).

First: COc1ccc(C(=O)Nc2ccc(C[N+](C)(C)C3CCOCC3)cc2)cc1Cl [Cpd 27, [4-(3-chloro-4-methoxy-benzoylamino)-benzyl]-dimethyl-(tetrahydro-pyran-4-yl)-ammonium iodide]
Second: C[N+](C)(Cc1ccc(NC(=O)c2ccc(Cl)c(C(F)(F)F)c2)cc1)C1CCOCC1 [Cpd 33, [4-(4-chloro-3-trifluoromethyl-benzoylamino)-benzyl]-dimethyl-(tetrahydro-pyran-4-yl)-ammonium iodide]
The IC50 of the first is 1.9-fold higher: 0.75 µM for the first, 0.4 µM for the second.

Going from `Cc1cc(Cl)ccc1C(=O)Nc1ccc(C[N+](C)(C)C2CCOCC2)cc1` [Cpd 32, [4-(4-chloro-2-methyl-benzoylamino)-benzyl]-dimethyl-(tetrahydro-pyran-4-yl)-ammonium iodide] to `C[N+](C)(CCc1ccc(NC(=O)c2cccc(Br)c2)cc1)C1CCOCC1` [Cpd 37, {2-[4-(3-bromo-benzoylamino)-phenyl]-ethyl}-dimethyl-(tetrahydro-pyran-4-yl)-ammonium iodide], the IC50 rises from 3.4 µM to 10.2 µM (3-fold). The first is the more potent here.

Compared with `C[N+](C)(Cc1cccc(NC(=O)C=Cc2cccc(Br)c2)c1)C1CCOCC1` [Cpd 38, {3-[3-(3-bromo-phenyl)-acryloylamino]-benzyl}-dimethyl-(tetrahydro-pyran-4-yl)-ammonium iodide], `C[N+](C)(Cc1ccc(NC(=O)C=Cc2cccc(Br)c2)cc1)C1CCOCC1` [Cpd 43, {4-[3-(3-bromo-phenyl)-acryloylamino]-benzyl}-dimethyl-(tetrahydro-pyran-4-yl)-ammonium iodide] is 15-fold lower in IC50: 5 µM for the first, 0.34 µM for the second. The second is the more potent here.

First: C[N+](C)(Cc1ccc(NC(=O)C=Cc2cc(F)cc(F)c2)cc1)C1CCOCC1 [Cpd 42, {4-[3-(3,5-difluoro-phenyl)-acryloylamino]-benzyl}-dimethyl-(tetrahydro-pyran-4-yl)-ammonium iodide]
Second: C[N+](C)(Cc1ccc(NC(=O)C=Cc2ccc(Br)cc2)cc1)C1CCOCC1 [Cpd 47, {4-[3-(4-bromo-phenyl)-acryloylamino]-benzyl}-dimethyl-(tetrahydro-pyran-4-yl)-ammonium iodide]
The IC50 of the first is 1.5-fold higher: 5.7 µM for the first, 3.7 µM for the second. The second is the more potent here.

Going from `C[N+](C)(Cc1ccc(NC(=O)C=Cc2cccc(Br)c2)cc1)C1CCSCC1` [Cpd 44, {4-[3-(3-bromo-phenyl)-acryloylamino]-benzyl}-dimethyl-(tetrahydro-thiopyran-4-yl)-ammonium iodide] to `C[N+]1(Cc2ccc(NC(=O)C=Cc3cccc(Br)c3)cc2)CCCCC1` [Cpd 55, 1-{4-[3-(3-bromo-phenyl)-acryloylamino]-benzyl}-1-methyl-piperidinium iodide], the IC50 falls from 14.6 µM to 5.4 µM (2.7-fold).

Compared with `C[N+]1(Cc2ccc(CNC(=O)C=Cc3ccc(Cl)c(Cl)c3)cc2)CCCCC1` [Cpd 48, 1-(4-{[3-(3,4-dichloro-phenyl)-acryloylamino]-methyl}-benzyl)-1-methyl-piperidinium iodide], `C[N+]1(Cc2ccc(NC(=O)C=Cc3ccc(Cl)c(Cl)c3)cc2)CCCCC1` [Cpd 53, 1-{4-[3-(3,4-dichloro-phenyl)-acryloylamino]-benzyl}-1-methyl-piperidinium iodide] is 2.6-fold lower in IC50: 8.4 µM for the first, 3.2 µM for the second. The second is the more potent here.

First: C[N+]1(Cc2ccc(CNC(=O)C=Cc3cccc(Br)c3)cc2)CCCCC1 [Cpd 49, 1-(4-{[3-(3-bromo-phenyl)-acryloylamino]-methyl}-benzyl)-1-methyl-piperidinium iodide]
Second: C[N+]1(Cc2cccc(NC(=O)C=Cc3cccc(Br)c3)c2)CCCCC1 [Cpd 52, 1-{3-[3-(3-bromo-phenyl)-acryloylamino]-benzyl}-1-methyl-piperidinium iodide]
The IC50 of the first is 4.6-fold higher: 11.9 µM for the first, 2.6 µM for the second. The second is the more potent here.

`C[N+]1(Cc2ccc(NC(=O)c3ccc(Cl)c(Cl)c3)cc2)CCCCC1` [Cpd 50, 1-[4-(3,4-dichloro-benzoylamino)-benzyl]-1-methyl-piperidinium iodide] and `C[N+]1(Cc2ccc(NC(=O)c3ccc(Cl)c(Cl)c3)cc2)CCCC1` [Cpd 51, 1-[4-(3,4-dichloro-benzoylamino)-benzyl]-1-methyl-pyrrolidinium iodide] are within 1.5-fold of each other in IC50: 2.6 µM for the first, 2.7 µM for the second.

`C[N+]1(Cc2cccc(NC(=O)c3cccc(C(F)(F)F)c3)c2)CCCCC1` [Cpd 56, 1-methyl-1-[3-(3-trifluoromethyl-benzoylamino)-benzyl]-piperidinium iodide] and `C[N+]1(Cc2ccc(NC(=O)C=Cc3cccc(C(F)(F)F)c3)cc2)CCCCC1` [Cpd 57, 1-methyl-1-{4-[3-(3-trifluoromethyl-phenyl)-acryloylamino]-benzyl}-piperidinium iodide] are within 1.5-fold of each other in IC50: 11.8 µM for the first, 13.3 µM for the second.
